ChEMBL document CHEMBL4613261, “Metabolic and Pharmaceutical Aspects of Fluorinated Compounds” (J Med Chem, 2020)

Target: T1, Lysine decarboxylase (Hafnia alvei) (UniProt P05033)
T1 sequence (whole entry): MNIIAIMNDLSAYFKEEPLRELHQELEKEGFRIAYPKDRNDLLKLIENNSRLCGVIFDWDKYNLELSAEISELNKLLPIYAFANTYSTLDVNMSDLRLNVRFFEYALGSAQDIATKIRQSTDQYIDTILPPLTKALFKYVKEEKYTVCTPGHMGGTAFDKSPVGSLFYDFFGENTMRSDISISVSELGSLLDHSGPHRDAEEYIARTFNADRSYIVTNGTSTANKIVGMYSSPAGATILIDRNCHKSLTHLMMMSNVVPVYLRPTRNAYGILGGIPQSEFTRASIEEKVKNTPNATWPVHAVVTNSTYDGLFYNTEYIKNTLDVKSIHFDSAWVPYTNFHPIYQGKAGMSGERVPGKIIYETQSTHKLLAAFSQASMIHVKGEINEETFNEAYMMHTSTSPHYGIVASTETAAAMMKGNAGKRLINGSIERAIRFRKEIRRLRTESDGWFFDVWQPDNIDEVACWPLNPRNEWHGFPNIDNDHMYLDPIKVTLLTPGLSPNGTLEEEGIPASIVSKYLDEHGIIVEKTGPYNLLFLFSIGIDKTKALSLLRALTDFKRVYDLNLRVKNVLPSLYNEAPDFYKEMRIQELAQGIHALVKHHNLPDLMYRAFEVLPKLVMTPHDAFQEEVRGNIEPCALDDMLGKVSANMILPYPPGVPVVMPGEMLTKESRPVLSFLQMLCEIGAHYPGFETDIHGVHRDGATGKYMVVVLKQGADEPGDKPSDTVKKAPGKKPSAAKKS
Description: Time dependent inhibition of Hafnia alvei lysine decarboxylase assessed as inactivation half life using L-lysine by Kitz-Wilson analysis

Row | Structure (SMILES) | T1/2
1 | C=C(F)[C@@](N)(CCCCN)C(=O)O | 3.6 min
2 | C=C(F)[C@](N)(CCCCN)C(=O)O | 2.8 min
